Measurements: US10711004B2 (Genentech, Inc., priority 2018, dated 2020)
Like-named read-outs stand apart in the source and are kept apart here.

Target: human TRPA1 channel (Homo sapiens (Human), UniProt O75762)
Assay: hTRPA1 CHO Ca2+ FLIPR Tetra assay, block of cinnamaldehyde induced calcium influx
Type: cell-based
Conditions: CHO cells expressing TRPA1, Hill coefficient fixed to 1.5
Description: CHO cells expressing TRPA1 were plated into 384-well plates, incubated overnight at 37° C., and loaded with BD calcium indicator dye for 1 hr at 37° C. followed by 15 minutes at room temperature. The assay buffer was Hank's Balanced Salt Solution (HBSS) containing 20 mM HEPES (pH readjusted to 7.4) along with 0.02% BSA.
Following dye load and plate cool down, compounds were added to the cells using FLIPR Tetra. Plates were then incubated with compounds for 10 minutes or 90 minutes at room temperature prior to adding agonist. Following this incubation, about an EC50 concentration of cinnamaldehyde (75) was added to active the channels and block of cinnamaldehyde induced calcium influx was measured.
Fixing the Hill coefficient will generally reduce variability of the IC50 determination. The IC50 results were individually examined to make sure the MIN and MAX points were set correctly prior to validation of the results.

[1] = read-out: hTRPA1 IC50 (10 min), compounds incubated 10 minutes at room temperature before cinnamaldehyde agonist
[2] = read-out: hTRPA1 IC50 (90 min), compounds incubated 90 minutes at room temperature before cinnamaldehyde agonist

Chain of human TRPA1 channel (O75762 whole entry): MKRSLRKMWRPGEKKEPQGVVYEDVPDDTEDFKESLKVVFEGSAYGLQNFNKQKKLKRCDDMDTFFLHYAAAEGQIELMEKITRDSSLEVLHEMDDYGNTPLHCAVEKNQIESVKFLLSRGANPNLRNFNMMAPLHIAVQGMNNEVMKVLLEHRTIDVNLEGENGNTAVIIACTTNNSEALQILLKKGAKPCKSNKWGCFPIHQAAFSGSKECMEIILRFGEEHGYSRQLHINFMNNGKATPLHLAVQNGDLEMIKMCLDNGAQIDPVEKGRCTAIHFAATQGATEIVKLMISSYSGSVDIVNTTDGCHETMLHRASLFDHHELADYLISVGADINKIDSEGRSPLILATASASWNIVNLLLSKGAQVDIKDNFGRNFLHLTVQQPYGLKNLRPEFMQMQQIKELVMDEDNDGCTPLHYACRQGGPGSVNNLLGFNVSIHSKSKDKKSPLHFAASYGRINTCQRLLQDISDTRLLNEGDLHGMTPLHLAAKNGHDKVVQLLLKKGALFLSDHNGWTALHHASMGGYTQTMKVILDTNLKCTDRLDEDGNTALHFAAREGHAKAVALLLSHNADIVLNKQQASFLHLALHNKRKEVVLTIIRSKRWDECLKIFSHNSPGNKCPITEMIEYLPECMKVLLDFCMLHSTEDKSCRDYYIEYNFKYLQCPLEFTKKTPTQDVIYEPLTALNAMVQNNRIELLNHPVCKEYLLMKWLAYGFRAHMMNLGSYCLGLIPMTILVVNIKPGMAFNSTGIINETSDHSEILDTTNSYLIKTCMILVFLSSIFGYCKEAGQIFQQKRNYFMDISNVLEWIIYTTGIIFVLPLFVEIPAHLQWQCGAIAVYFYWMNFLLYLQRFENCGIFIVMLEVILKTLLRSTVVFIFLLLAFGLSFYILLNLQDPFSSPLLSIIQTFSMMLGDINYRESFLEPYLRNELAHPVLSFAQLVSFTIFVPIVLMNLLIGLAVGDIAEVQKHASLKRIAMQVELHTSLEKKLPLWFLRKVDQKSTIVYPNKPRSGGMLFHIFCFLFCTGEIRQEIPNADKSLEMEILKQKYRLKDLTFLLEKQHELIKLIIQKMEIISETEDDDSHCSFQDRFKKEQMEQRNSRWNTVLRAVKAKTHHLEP

Row | SMILES | IC50 [1] [nM] | IC50 [2] [nM] | IC50 (compounds incubated 10 minutes at room temperature before cinnamaldehyde agonist) [nM]
1 | Cc1ccnc2ncn(Cc3nc([C@H]4C[C@H](c5cccc(Cl)c5)C4)no3)c(=O)c12 | 12.2 |  | 
2 | Cn1cnc2ncn(Cc3nc([C@H]4[C@@H]5CN(c6ccc(C(F)(F)F)cc6)C[C@@H]54)no3)c(=O)c21 [Example Compound 31, 7-methyl-1-[[3-[(1R,5S,6r)-3-[4-(trifluoromethyl)phenyl]-3-azabicyclo[3.1.0]hexan-6-yl]-1,2,4-oxadiazol-5-yl]methyl]purin-6-one] | 97.1 |  | 
3 | Cn1cnc2ncn(Cc3nc([C@H]4C[C@H](c5cccc(C#N)c5)C4)no3)c(=O)c21 [Example Compound 189, 3-((1r,3r)-3-(5-((7-methyl-6-oxo-6,7-dihydro-1H-purin-1-yl)methyl)-1,2,4-oxadiazol-3-yl)cyclobutyl)benzonitrile] | 68.2 |  | 
4 | Cn1cnc2ncn(Cc3nc([C@H]4[C@@H]5CN(c6cc(F)c(Cl)c(F)c6)C[C@@H]54)no3)c(=O)c21 [Example Compound 271, 7-methyl-1-[[3-[(1S,5R)-3-(4-chloro-3,5-difluoro-phenyl)-3-azabicyclo[3.1.0]hexan-6-yl]-1,2,4-oxadiazol-5-yl]methyl]purin-6-one] | 34.7 | 11 | 
5 | Cc1ccc(N2C[C@@H]3[C@H](C2)[C@H]3c2noc(Cn3cnc4ncn(C)c4c3=O)n2)nc1 [Example Compound 140, 7-methyl-1-((3-((1R,5S,6r)-3-(5-methylpyridin-2-yl)-3-azabicyclo[3.1.0]hexan-6-yl)-1,2,4-oxadiazol-5-yl)methyl)-1,7-dihydro-6H-purin-6-one] | 222 | 170 | 
6 | Cn1cnc2ncn(Cc3nc([C@H]4[C@@H]5CN(c6cccc(-c7cccnc7)c6)C[C@@H]54)no3)c(=O)c21 [Example Compound 203, 7-methyl-1-((3-((1R,5S,6r)-3-(3-(pyridin-3-yl)phenyl)-3-azabicyclo[3.1.0]hexan-6-yl)-1,2,4-oxadiazol-5-yl)methyl)-1,7-dihydro-6H-purin-6-one] | 46.3 | 78 | 
7 | Cc1ccnc2ncn(Cc3nc([C@H]4[C@@H]5Oc6c(Cl)cccc6[C@@H]54)no3)c(=O)c12 [Example Compound 165, 3-((3-((1S,1aR,6bS)-3-chloro-1a,6b-dihydro-1H-cyclopropa[b]benzofuran-1-yl)-1,2,4-oxadiazol-5-yl)methyl)-5-methylpyrido[2,3-d]pyrimidin-4(3H)-one] | 22.2 |  | 
8 | Cn1c(Cl)nc2ncn(Cc3nc([C@@H]4[C@H]5C=C(c6ccccc6)C[C@H]54)no3)c(=O)c21 [Example Compound 263, 8-chloro-7-methyl-1-[[3-[(1R,5R,6S)-3-phenyl-6-bicyclo[3.1.0]hex-2-enyl]-1,2,4-oxadiazol-5-yl]methyl]purin-6-one] | 15.8 | 6.5 | 
9 | Cn1cnc2ncn(Cc3nc([C@@H]4[C@H]5Cc6ccccc6[C@H]54)no3)c(=O)c21 (stereo in doubt) [Example Compound 2, 7-methyl-1-[[3-[rac-(1R,1aR,6aS)-1,1a,6,6a-tetrahydrocyclopropa[a]inden-1-yl]-1,2,4-oxadiazol-5-yl]methyl]purin-6-one] |  |  | 277
10 | Cn1cnc2ncn(Cc3nc([C@H]4[C@@H]5CN(c6cccc(OC(F)(F)F)c6)C[C@@H]54)no3)c(=O)c21 [Example Compound 4, 7-methyl-1-[[3-[(1R,5S,6r)-3-(3-trifluoromethoxy)phenyl-3-azabicyclo[3.1.0]hexan-6-yl]-1,2,4-oxadiazol-5-yl]methyl]purin-6-one] | 119 |  | 
11 | Cn1cnc2ncn(Cc3nc([C@H]4[C@@H]5CN(c6cc(F)c(C#N)c(F)c6)C[C@@H]54)no3)c(=O)c21 [Example Compound 258, 2,6-difluoro-4-[(1S,5R)-6-[5-[(7-methyl-6-oxo-purin-1-yl)methyl]-1,2,4-oxadiazol-3-yl]-3-azabicyclo[3.1.0]hexan-3-yl]benzonitrile] | 78.2 | 18 | 

The remaining molecules from weak to strong by IC50 [1], led by results:

Row | IC50 [1] [nM] | IC50 [2] [nM] | IC50 (compounds incubated 10 minutes at room temperature before cinnamaldehyde agonist) [nM] | SMILES
12 | 460 | 100 |  | Cn1cnc2ncn(Cc3nc([C@H]4[C@@H]5CN(c6ccnc(Cl)c6)C[C@@H]54)no3)c(=O)c21 [Example Compound 146, 1-((3-((1R,5S,6r)-3-(2-chloropyridin-4-yl)-3-azabicyclo[3.1.0]hexan-6-yl)-1,2,4-oxadiazol-5-yl)methyl)-7-methyl-1,7-dihydro-6H-purin-6-one]
13 | 348 | 440 |  | Cn1cnc2ncn(Cc3nc([C@@H]4[C@H]5C=C(c6cccnc6)C[C@H]54)no3)c(=O)c21 [Example Compound 134, 7-methyl-1-((3-((1R,5R,6S)-3-(pyridin-3-yl)bicyclo[3.1.0]hex-2-en-6-yl)-1,2,4-oxadiazol-5-yl)methyl)-1,7-dihydro-6H-purin-6-one]
14 | 296 | 360 |  | Cn1cnc2ncn(Cc3nc([C@@H]4[C@H]5C=C(c6ccc(Cl)cn6)C[C@H]54)no3)c(=O)c21 [Example Compound 123, 1-((3-((1R,5R,6S)-3-(5-chloropyridin-2-yl)bicyclo[3.1.0]hex-2-en-6-yl)-1,2,4-oxadiazol-5-yl)methyl)-7-methyl-1,7-dihydro-6H-purin-6-one]
15 | 196 |  |  | Cn1cnc2ncn(Cc3nc([C@H]4C[C@H](c5ccc(OC(F)(F)F)cc5)C4)no3)c(=O)c21
16 | 190 |  |  | O=c1c2ccncc2ncn1Cc1nc([C@H]2C[C@](F)(c3ccc(Cl)cc3)C2)no1
17 | 71.3 | 23 |  | Cn1cc(-c2cc(Cl)cc(N3C[C@@H]4[C@H](C3)[C@H]4c3noc(Cn4cnc5ncn(C)c5c4=O)n3)c2)cn1 [Example Compound 163, 1-((3-((1R,5S,6r)-3-(3-chloro-5-(1-methyl-1H-pyrazol-4-yl)phenyl)-3-azabicyclo[3.1.0]hexan-6-yl)-1,2,4-oxadidzol-5-yl)methyl)-7-methyl-1,7-dihydro-6H-purin-6-one]
18 | 60.6 | 50 |  | Cn1c(=O)ccc2ncn(Cc3nc([C@H]4[C@@H]5CN(c6cc(Cl)ccn6)C[C@@H]54)no3)c(=O)c21 [Example Compound 174, 3-((3-((1R,5S,6r)-3-(4-chloropyridin-2-yl)-3-azabicyclo[3.1.0]hexan-6-yl)-1,2,4-oxadiazol-5-yl)methyl)-5-methyl-3,5-dihydropyrido[3,2-d]pyrimidine-4,6-dione]
19 | 48 |  |  | COc1ccc(N2C[C@@H]3[C@H](C2)[C@H]3c2noc(Cn3cnc4ncn(C)c4c3=O)n2)cc1 [Example Compound 35, 7-methyl-1-[[3-[(1R,5S,6r)-3-[4-methoxyphenyl]-3-azabicyclo[3.1.0]hexan-6-yl]-1,2,4-oxadiazol-5-yl]methyl]purin-6-one]
20 | 38.4 | 17 |  | Cn1cc(-c2cccc(N3C[C@@H]4[C@H](C3)[C@H]4c3noc(Cn4cnc5ncn(C)c5c4=O)n3)c2)cn1 [Example Compound 200, 7-methyl-1-((3-((1R,5S,6r)-3-(3-(1-methyl-1H-pyrazol-4-yl)phenyl)-3-azabicyclo[3.1.0]hexan-6-yl)-1,2,4-oxadiazol-5-yl)methyl)-1,7-dihydro-6H-purin-6-one]
21 | 36.2 | 34 |  | Cn1cnc2ncn(Cc3nc([C@@H]4[C@H]5C=C(c6ccc7scnc7c6)C[C@H]54)no3)c(=O)c21 [Example Compound 113, 1-((3-((1R,5R,6S)-3-(benzo[d]thiazol-5-yl)bicyclo[3.1.0]hex-2-en-6-yl)-1,2,4-oxadiazol-5-yl)methyl)-7-methyl-1,7-dihydro-6H-purin-6-one]
22 | 26.6 | 16 |  | COc1ccc(C2=C[C@H]3[C@@H](C2)[C@@H]3c2noc(Cn3cnc4ncn(C)c4c3=O)n2)cc1 [Example Compound 119, 1-((3-((1R,5R,6S)-3-(4-methoxyphenyl)bicyclo[3.1.0]hex-2-en-6-yl)-1,2,4-oxadiazol-5-yl)methyl)-7-methyl-1,7-dihydro-6H-purin-6-one]
23 | 22.2 |  |  | Cn1cnc2ncn(Cc3nc([C@H]4CC[C@H](c5ccc(Cl)cc5)C4)no3)c(=O)c21 [Example Compound 223, 1-((3-((1S,3S)-3-(4-chlorophenyl)cyclopentyl)-1,2,4-oxadiazol-5-yl)methyl)-7-methyl-1,7-dihydro-6H-purin-6-one]
24 | 20.6 | 3.1 |  | Cn1cnc2ncn(Cc3nc([C@H]4[C@@H]5CN(c6cc(F)cc(F)c6)C[C@@H]54)no3)c(=O)c21 [Example Compound 92, 1-((3-((1R,5S,6r)-3-(3,5-difluorophenyl)-3-azabicyclo[3.1.0]hexan-6-yl)-1,2,4-oxadiazol-5-yl)methyl)-7-methyl-1,7-dihydro-6H-purin-6-one]
25 | 11.1 | 5.5 |  | Cn1cnc2ncn(Cc3nc([C@H]4C[C@H](C(F)(F)c5cccc(F)c5)C4)no3)c(=O)c21 (stereo in doubt) [Example Compound 248, 1-[[3-[trans-3-[difluoro-(3-fluorophenyl)methyl]cyclobutyl]-1,2,4-oxadiazol-5-yl]methyl]-7-methyl-purin-6-one]
26 | 10.4 | 4.1 |  | Cn1nnc2ncn(Cc3nc([C@@H]4[C@H]5C=C(c6ccccc6)C[C@H]54)no3)c(=O)c21 [Example Compound 109, 1-methyl-6-((3-((1R,5R,6S)-3-phenylbicyclo[3.1.0]hex-2-en-6-yl)-1,2,4-oxadiazol-5-yl)methyl)-1,6-dihydro-7H-[1,2,3]triazolo[4,5-d]pyrimidin-7-one]
